Results: patent US11053258B2, “Pyrimidine carboxamides as GSK-3 inhibitors” (BRISTOL-MYERS SQUIBB COMPANY, priority 2016, dated 2021)
“And” between values parts separate entries of the source, which are not always exact repeats. Equal values may be shown once. Read-outs that look alike come from different tables or passages of the source.

How the values were obtained:
GSK3α = GSK3α (Homo sapiens, UniProt P49840); experiment: GSK3α kinase assay (Caliper LabChip3000, fluoresceinated peptide substrate); assay type: biochemical; conditions: second value of cell; 250 pM enzyme, 20 uM ATP, 20 hours room temperature; read-out: GSK3β/α (nM): GSK3α IC50
Sequence of GSK3α (P49840 whole entry, species assumed): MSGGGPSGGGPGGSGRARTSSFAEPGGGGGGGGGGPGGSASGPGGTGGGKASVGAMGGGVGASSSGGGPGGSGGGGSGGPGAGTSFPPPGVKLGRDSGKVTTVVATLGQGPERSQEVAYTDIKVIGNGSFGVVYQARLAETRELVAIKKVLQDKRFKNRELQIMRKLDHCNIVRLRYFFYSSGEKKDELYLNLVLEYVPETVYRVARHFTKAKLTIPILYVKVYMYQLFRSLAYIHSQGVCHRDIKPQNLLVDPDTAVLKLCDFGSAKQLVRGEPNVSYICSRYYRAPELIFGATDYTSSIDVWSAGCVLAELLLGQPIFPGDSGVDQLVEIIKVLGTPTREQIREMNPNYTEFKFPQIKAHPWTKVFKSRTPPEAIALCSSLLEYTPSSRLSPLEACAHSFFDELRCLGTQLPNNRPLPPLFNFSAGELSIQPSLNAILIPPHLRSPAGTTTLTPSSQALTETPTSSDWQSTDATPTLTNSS
Description: (§1) The kinase assay was performed in V-bottom 384-well plates. The final assay volume was 30 μl prepared from 15 μl additions of enzyme, substrates (fluoresceinated peptide FL-KRREILSRRP[ps]ERYR-NH2 and ATP) and test compounds in assay buffer (100 mM HEPES pH 7.4, 10 mM MgCl2, 25 mM Beta-Glycerolphosphate, 0.015% Brij35 and 0.25 mM DTT). The reaction was incubated at room temperature for 20 hours and terminated by adding 45 μl of 35 mM EDTA to each sample. The reaction mixture was analyzed on the Caliper LabChip3000 (Caliper, Hopkinton, Mass.) by electrophoretic separation of the unphosphorylated substrate and phosphorylated product. Inhibition data were calculated by comparison of the no enzyme control reactions for 100% inhibition and vehicle-only reactions for 0% inhibition. The final concentration of reagents in the assay were 250 pM GSK3α or GSK3β, 20 uM ATP, 1.5 uM FL-KRREILSRRP[ps]ERYR-NH2, and 1.6% DMSO. Dose response curves were generated to determine the concentration required to inhibit 50% of the kinase activity (IC50). Compounds were dissolved at 10 mM in dimethylsulfoxide (DMSO) and evaluated at eleven concentrations. IC50 values were derived by non-linear regression analysis.

pTau = pTau assay; assay type: cell-based
GSK3β = GSK3β (Homo sapiens, UniProt P49841); experiment: GSK3β kinase assay (Caliper LabChip3000, fluoresceinated peptide substrate); assay type: biochemical; conditions: first value of cell; 250 pM enzyme, 20 uM ATP, 20 hours room temperature; read-out: GSK3β/α (nM): GSK3β IC50
Sequence of GSK3β (P49841 whole entry, species assumed): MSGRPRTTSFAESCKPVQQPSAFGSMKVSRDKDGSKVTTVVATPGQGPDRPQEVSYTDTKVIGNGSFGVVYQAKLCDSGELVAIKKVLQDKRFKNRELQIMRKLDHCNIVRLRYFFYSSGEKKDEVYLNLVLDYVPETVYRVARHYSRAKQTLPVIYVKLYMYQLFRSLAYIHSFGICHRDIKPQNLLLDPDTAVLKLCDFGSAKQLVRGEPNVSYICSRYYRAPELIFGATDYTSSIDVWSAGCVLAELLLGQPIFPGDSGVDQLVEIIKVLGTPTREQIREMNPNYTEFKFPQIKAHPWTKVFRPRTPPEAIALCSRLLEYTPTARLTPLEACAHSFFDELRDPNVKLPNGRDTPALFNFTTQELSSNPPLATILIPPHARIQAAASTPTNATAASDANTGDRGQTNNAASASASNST
Description: as §1

[1] = rcm bond, 70.0 °C

Structure (SMILES) | IC50 (GSK3α) [nM] | IC50 (pTau) [nM] | IC50 (GSK3β) [nM] | other results
O=C1Nc2cnc(F)cc2N2CCN(C/C=C/CC(F)CNc3nccc1n3)CC2 (stereo not drawn) [Example 30, (E)-2^6,8-Difluoro-3,6-diaza-5(4,2)-pyrimidina-1(1,4)-piperazina-2(4,3)-pyridinacyclododecaphan-10-en-4-one] | 15.5 | 178 | – | –
O=C1Nc2cnccc2OCCCCCNc2nccc1n2 [Example 6, 5-Oxa-3,11-diaza-1(4,2)-pyrimidina-4(3,4)-pyridinacycloundecaphan-2-one] | 21.2 | 910 | 28.6 | –
O=C1Nc2cnc(F)cc2N2CCN(CC=CCC(O)C3(CC3)Nc3nccc1n3)CC2 (mixture of isomers) [Example 34, (E)-6′-fluoro-8′-hydroxyspiro[cyclopropane-1,7′-3,6-diaza-5(4,2)-pyrimidina-1(1,4)-piperazina-2(4,3)-pyridinacyclododecaphanen]-10′-en-4′-one] | 2000 | 9970 | 1270 | ring closure, isolated yield ([1]; from C=CCC(O)C1(Nc2nccc(C(=O)Nc3cnc(F)cc3N3CCN(CC=C)CC3)n2)CC1, 18-membered ring, Zhan 1B, 1.5 h): 54%
O=C1Nc2cnc(F)cc2N2CCN(C/C=C/CC(O)CNc3nccc1n3)CC2 (stereo not drawn) [Example 26, (E)-2^6-fluoro-8-hydroxy-3,6-diaza-5(4,2)-pyrimidina-1(1,4)-piperazina-2(4,3)-pyridinacyclododecaphan-10-en-4-one] | 4.3 | 164 | 3.3 | –
O=C1Nc2cnc(F)cc2N2CCOC(CCCCCNc3nccc1n3)C2 (stereo not drawn) [Example 15, 2^6-Fluoro-3,6-diaza-1(4,2)-morphohna-5(4,2)-pyrimidina-2(4,3)-pyridinacycloundecaphan-4-one] | 34 | 1890 | 22.3 | –
CC1(C)CC=CCN2CCN(CC2)c2cc(F)ncc2NC(=O)c2ccnc(n2)NC1 | – | – | – | ring closure, isolated yield ([1]; from C=CCN1CCN(c2cc(F)ncc2NC(=O)c2ccnc(NCC(C)(C)CC=C)n2)CC1, 18-membered ring, Zhan 1B, 1.5 h, 2 steps): 34%
CC1(O)CCCCCOc2ccncc2NC(=O)c2ccnc(n2)NC1 (stereo not drawn) [Example 42, 11-Hydroxy-11-methyl-5-oxa-3,13-diaza-1(4,2)-pyrimidina-4(3,4)-pyridinacyclotridecaphan-2-one] | 3.2 | 96 | 1.4 | –
C[C@@H]1Nc2nccc(n2)C(=O)Nc2cnc(F)cc2N2CCN(C/C=C/CC1O)CC2 (single isomer, unassigned) [Example 36] | 18.5 | 202 | 10.8 | –
O=C1Nc2cnc(F)cc2N2CCN(C/C=C/CCCNc3nccc1n3)CC2 (single isomer, unassigned) [Example 23, (E)-2^6-fluoro-3,6-diaza-5(4,2)-pyrimidina-1(1,4)-piperazina-2(4,3)-pyridinacyclododecaphan-10-en-4-one] | 0.6 | 18 | 0.5 | –
O=C1Nc2cnc(F)cc2N2CCOC(C=CCCCNc3nccc1n3)C2 (stereo not drawn) | – | – | – | ring closure, isolated yield ([1]; from C=CCCCNc1nccc(C(=O)Nc2cnc(F)cc2N2CCOC(C=C)C2)n1, 16-membered ring, Zhan 1B (40 mol%), ClCH2CH2Cl, 5.6 mM, 2.0 h): 46%
O=C1Nc2cnc(F)cc2N2CCOC(/C=C/CCCNc3nccc1n3)C2 (stereo not drawn) [Example 14, (E)-2^6-Fluoro-3,6-diaza-1(4,2)-morpholina-5(4,2)-pyrimidina-2(4,3)-pyridinacycloundecaphan-10-en-4-one] | 20.2 | 627 | 12.5 | –
O=C1Nc2cnc(F)cc2N2CCN(CC=CCC3(CC3)CNc3nccc1n3)CC2 | – | – | – | ring closure, isolated yield ([1]; from C=CCN1CCN(c2cc(F)ncc2NC(=O)c2ccnc(NCC3(CC=C)CC3)n2)CC1, 18-membered ring, Zhan 1B, ClCH2CH2Cl, 4.73 mM, 2.0 h): 79%
CC1(O)C/C=C/CN2CCN(CC2)c2cc(F)ncc2NC(=O)c2ccnc(n2)NC1 (stereo not drawn) [Example 39, (E)-2^6-Fluoro-8-hydroxy-8-methyl-3,6-diaza-5(4,2)-pyrimidina-1(1,4)-piperazina-2(4,3)-pyridinacyclododecaphan-10-en-4-one] | 8 | 372 | 4.1 | –
O=C1Nc2cnccc2OCCCCCCCNc2nccc1n2 [Example 18, 5-Oxa-3,13-diaza-1(4,2)-pyrimidina-4(3,4)-pyridinacyclotridecaphan-2-one] | 6.7 | 262 | 3.1 | –
O=C1Nc2cnc(F)cc2N2CCN(CCCCCCNc3nccc1n3)CC2 [Example 24, 2^6-Fluoro-3,6-diaza-5(4,2)-pyrimidina-1(1,4)-piperazina-2(4,3)-pyridinacyclododecaphan-4-one] | 3.6 | 124 | 2 | –
CC1(O)CC=CCCOc2ccncc2NC(=O)c2ccnc(n2)NC1 (mixture of isomers) [Example 41, (E)-11-Hydroxy-11-methyl-5-oxa-3,13-diaza-1(4,2)-pyrimidina-4(3,4)-pyridinacyclotridecaphan-8-en-2-one] | 4.7 | 266 | 2.7 | ring closure, isolated yield ([1]; from C=CCCOc1ccncc1NC(=O)c1ccnc(NCC(C)(O)CC=C)n1, 16-membered ring, Zhan 1B, ClCH2CH2Cl, 4.33 mM, 1.5 h): 39%
O=C1Nc2cnccc2OCCC=CCCCNc2nccc1n2 | – | – | – | ring closure, isolated yield ([1]; from C=CCCCNc1nccc(C(=O)Nc2cnccc2OCCC=C)n1, 16-membered ring, Zhan 1B (30 mol%), ClCH2CH2Cl, 5.57 mM, 2.0 h): 23%
O=C1Nc2cnccc2OCC/C=C/CCCNc2nccc1n2 [Example 17, (E)-5-Oxa-3,13-diaza-1(4,2)-pyrimidina-4(3,4)-pyridinacyclotridecaphan-8-en-2-one] | 3.3 | 92 | 1.3 | –
O=C1Nc2cnccc2OCCC=CCNc2nccc1n2 (mixture of isomers) [Example 5, 5-Oxa-3,11-diaza-1(4,2)-pyrimidina-4(3,4)-pyridinacycloundecaphan-8-en-2-one] | 12.1 | 1500 | 13.5 | ring closure, isolated yield ([1]; from C=CCCOc1ccncc1NC(=O)c1ccnc(NCC=C)n1, 14-membered ring, Zhan 1B (50 mol%), ClCH2CH2Cl, 4.55 mM, 2.0 h): 34%
CC1(C)C/C=C/CN2CCN(CC2)c2cc(F)ncc2NC(=O)c2ccnc(n2)NC1 [Example 32, (E)-2^6-Fluoro-8,8-dimethyl-3,6-diaza-5(4,2)-pyrimidina-1(1,4)-piperazina-2(4,3)-pyridinacyclododecaphan-10-en-4-one] | 2 | 80 | – | –
O=C1Nc2cnc(F)cc2N2CCN(C/C=C\CCC(O)CNc3nccc1n3)CC2 (stereo not drawn) [Example 29, (Z)-2^6-fluoro-8-hydroxy-3,6-diaza-5(4,2)-pyrimidina-1(1,4)-piperazina-2(4,3)-pyridinacyclotridecaphan-11-en-4-one] | 30.4 | 2660 | 29 | –
O=C1Nc2cnccc2OCCC=CCCNc2nccc1n2 (mixture of isomers) [Example 8, 5-Oxa-3,12-diaza-1(4,2)-pyrimidina-4(3,4)-pyridinacyclododecaphan-8-en-2-one] | 8.4 | 634 | 8.1 | ring closure, isolated yield ([1]; from C=CCCNc1nccc(C(=O)Nc2cnccc2OCCC=C)n1, 15-membered ring, Zhan 1B (50 mol%), ClCH2CH2Cl, 4.3 mM, 2.0 h): 46%
O=C1Nc2cnc(F)cc2N2CCN(CC=CCCCNc3nccc1n3)CC2 | – | – | – | ring closure, isolated yield ([1]; from C=CCCCNc1nccc(C(=O)Nc2cnc(F)cc2N2CCN(CC=C)CC2)n1, 18-membered ring, Zhan 1B (20 mol%), ClCH2CH2Cl, 5.64 mM, 2.0 h): 65%
O=C1Nc2cnc(F)cc2N2CCN(C/C=C\CC3(CC3)CNc3nccc1n3)CC2 [Example 44, (Z)-6′-fluorospiro[cyclopropane-1,8′-3,6-diaza-5(4,2)-pyrimidina-1(1,4)-piperazina-2(4,3)-pyridinacyclododecaphanen]-10′-en-4′-one] | 21.1 | 1640 | 12.5 | –
O=C1Nc2cnccc2OCCCCCCNc2nccc1n2 [Example 9, 5-Oxa-3,12-diaza-1(4,2)-pyrimidina-4(3,4)-pyridinacyclododecaphan-2-one] | 6.2 | 146 | 5.2 | –
C[C@@H]1Nc2nccc(n2)C(=O)Nc2cnc(F)cc2N2CCN(C/C=C/C[C@@H]1O)CC2 [Example 37, (7S,8S,E)-2^6-fluoro-8-hydroxy-7-methyl-3,6-diaza-5(4,2)-pyrimidina-1(1,4)-piperazina-2(4,3)-pyridinacyclododecaphan-10-en-4-one] | 17 | 404 | 7.3 | –
O=C1Nc2cnc(F)cc2N2CCN(CC=CCC(O)CNc3nccc1n3)CC2 (stereo not drawn) | – | – | – | ring closure, isolated yield ([1]; from C=CCC(O)CNc1nccc(C(=O)Nc2cnc(F)cc2N2CCN(CC=C)CC2)n1, 18-membered ring, Zhan 1B (30 mol%), ClCH2CH2Cl, 5.33 mM, 4.0 h): 50%
C[C@@H]1Nc2nccc(n2)C(=O)Nc2cnc(F)cc2N2CCN(CC=CCC1O)CC2 (stereo partly drawn) | – | – | – | ring closure, isolated yield ([1]; from C=CCC(O)[C@H](C)Nc1nccc(C(=O)Nc2cnc(F)cc2N2CCN(CC=C)CC2)n1, 18-membered ring, Zhan 1B, ClCH2CH2Cl, 4.78 mM, 1.5 h): 29% and 26%
